Here are results for seven molecules from article PMC4778918, “Signal Transduction at the Domain Interface of Prokaryotic Pentameric Ligand-Gated Ion Channels” (PLoS Biology, 2016).

Several values for one entry are separate records, joined by “and”; a condition that tells them apart may be missing. Equal values may be shown once. Read-outs that look alike come from different tables or passages of the source.

The target of one data set is ELIC R91A/F116A (Dickeya chrysanthemi, UniProt P0C7B7, F116A/R91A). As to the kind of experiment: biochemical. Type of data set: binding, Erwinia chrisanthemi. The note with it: read-out: Keff.
A further data set has as its target ELIC R91A/Y258A (Dickeya chrysanthemi, UniProt P0C7B7, R91A/Y257A). As to the kind of experiment: biochemical. Type of data set: binding, Erwinia chrisanthemi. To be noted: read-out: Keff.
A further data set deals with ELIC. On the set-up: method as in PMID 21713033. To be noted: two-electrode voltage clamp recordings, ELIC WT, in the absence of Ca2+; cited from earlier work. For orientation: In two-electrode clamp one electrode senses voltage and the other passes current.
The target in data set [1] is T1, ELIC WT (Dickeya chrysanthemi, UniProt P0C7B7, INS163G). Briefly: biochemical. Type of data set: binding, Erwinia chrisanthemi.
Another data set concerns the target ELIC resting state. The note with it: kinetic analysis of single channel recordings of ELIC; read-out: dissociation constant to the resting state; cited from earlier work.
A further data set addresses ELIC R91A (Dickeya chrysanthemi, UniProt P0C7B7, INS163G/R91A). Briefly: biochemical. Type of data set: binding, Erwinia chrisanthemi. The note with it: read-out: Keff.
Data set [2] deals with T2, ELIC T28D (Dickeya chrysanthemi, UniProt P0C7B7, INS163G/T28D). Briefly: biochemical. Type of data set: binding, Erwinia chrisanthemi. The note with it: ITC.
Data set [3] deals with T1, ELIC WT. As to the kind of experiment: Two-electrode voltage clamp dose-response, ELIC WT in X. laevis oocytes. The note with it: 0.5 mM Ca2+, mean of 4 oocytes. Type of data set: cell-based, Erwinia chrisanthemi. From the text:
X. laevis oocytes were obtained either from Ecocyte or from an in-house facility. Animal procedures and preparation of oocytes followed standard procedures and were in accordance with the Swiss Cantonal and Federal legislation relating to animal experimentation. Plasmid DNA containing the genes coding for the respective constructs for expression in X. laevis oocytes were linearized by MluI, and capped mRNA was transcribed with the mMessage mMachine kit (Ambion) and purified with the RNeasy kit (Qiagen). 10–200 ng of mRNA was injected into defolliculated X. laevis oocytes, which were subsequently incubated in Barth’s solution (88 mM NaCl, 1 mM KCl, 1 mM CaCl2, 0.33 mM Ca(NO3)2, 0.82 mM MgSO4, 10 mM Na-Hepes (pH 7.4) and 50 μg / ml Gentamycin) and stored at 16°C. One to three days after injection, two-electrode voltage clamp measurements were performed at 20°C (OC-725B, Warner Instrument Corp.). For ELIC, maximal currents were recorded in a bath solution containing 10 mM Hepes (pH 7), 130 mM NaCl, 2 mM KCl, 0.5 mM CaCl2 and either 5 mM or 25 mM Cysteamine. For GLIC, the maximal currents were recorded in a bath solution containing 10 mM Citrate (pH 4), 130 mM NaCl, 2 mM KCl, 1.8 mM CaCl2 and 1 mM MgCl2. Dose-response experiments were carried out at agonist concentrations indicated in the respective figures. Voltage was clamped at −40 mV, and data was filtered at 20 Hz unless stated otherwise. Surface expression in constructs containing an HA-tag was assayed after electrophysiological characterization as described. For that purpose, the oocytes were placed in a 96-well plate (TPP) and incubated in ND96 solution (93.5 mM NaCl, 2 mM KCl, 1.8 mM CaCl2, 2 mM MgCl2 and 10 mM Hepes, pH 7.4) containing 1% BSA for at least 30 min. All steps were carried out at 4°C with the same buffer unless mentioned otherwise. Oocytes were subsequently transferred into buffer containing 1 μg/ml rat monoclonal anti-HA antibody (3F10, Roche) for 1 h, washed 3 times and incubated with buffer containing 0.16 μg/ml horseradish peroxidase (HRP) coupled to a secondary antibody (HRP-conjugated goat anti-rat F(Ab)2 fragments, Jackson) for 30–60 min. The oocytes were washed 5 times with ND96 solution and subsequently transferred to a white 96-well plate (flat bottom, Nunclon Delta Surface). The solution was aspirated, 30 μl of Super Signal ELISA femto solutions 1 and 2 (Pierce) was added, and luminescence was quantitated with a Tecan infinite M1000 plate reader.

Data set [4] deals with T2, ELIC T28D. Type of data set: cell-based, Erwinia chrisanthemi. The note with it: 0.5 mM Ca2+, mean of 5 oocytes.
Text: (§1) X. laevis oocytes were obtained either from Ecocyte or from an in-house facility. Animal procedures and preparation of oocytes followed standard procedures and were in accordance with the Swiss Cantonal and Federal legislation relating to animal experimentation. Plasmid DNA containing the genes coding for the respective constructs for expression in X. laevis oocytes were linearized by MluI, and capped mRNA was transcribed with the mMessage mMachine kit (Ambion) and purified with the RNeasy kit (Qiagen). 10–200 ng of mRNA was injected into defolliculated X. laevis oocytes, which were subsequently incubated in Barth’s solution (88 mM NaCl, 1 mM KCl, 1 mM CaCl2, 0.33 mM Ca(NO3)2, 0.82 mM MgSO4, 10 mM Na-Hepes (pH 7.4) and 50 μg / ml Gentamycin) and stored at 16°C. One to three days after injection, two-electrode voltage clamp measurements were performed at 20°C (OC-725B, Warner Instrument Corp.). For ELIC, maximal currents were recorded in a bath solution containing 10 mM Hepes (pH 7), 130 mM NaCl, 2 mM KCl, 0.5 mM CaCl2 and either 5 mM or 25 mM Cysteamine. […] Dose-response experiments were carried out at agonist concentrations indicated in the respective figures. Voltage was clamped at −40 mV, and data was filtered at 20 Hz unless stated otherwise.
Another data set concerns the target ELIC L29A (Dickeya chrysanthemi, UniProt P0C7B7, INS163G/L29A). Type of data set: cell-based, Erwinia chrisanthemi. The note with it: 0.5 mM Ca2+, mean of 3 oocytes.
For another data set, the target named is ELIC P254A (Dickeya chrysanthemi, UniProt P0C7B7, P253A). Type of data set: cell-based, Erwinia chrisanthemi.
Another data set deals with ELIC T28A (Dickeya chrysanthemi, UniProt P0C7B7, INS163G/T28A). Type of data set: cell-based, Erwinia chrisanthemi. The note with it: for I/Imax mean: ELIC T28A, 0.5 mM Ca2+, mean of 4 oocytes.
The target of a further data set is ELIC ΔL29 (Dickeya chrysanthemi, UniProt P0C7B7, DEL29-29/INS163G). Type of data set: cell-based, Erwinia chrisanthemi. To be noted: ELIC woL29 (deletion of Leu29), 0.5 mM Ca2+, mean of 4 oocytes.
Data set [5] deals with ELIC double mutant R91A/Y258A. As to the kind of experiment: SEC. In general terms: Size exclusion chromatography separates by hydrodynamic size, large species first.
In data set [6] the target is ELIC ligand binding site mutant R91A. Briefly: SEC.
Data set [7] concerns the molecule itself. As to the kind of experiment: SEC; gel filtration on Superdex 200 at 4°C in buffer with 0.145% UDM after removal of His10-MBP; pentamer peak pooled for ITC.
The data set “SEC” deals with the molecule itself. As to the kind of experiment: SEC.

Text for ELIC L29A: as §1
Text for ELIC P254A: as §1
Text for ELIC T28A: as §1
Text for ELIC ΔL29: as §1

What is called EC50 is the concentration that produces a half-maximal response. `CCCN` [propylamine]: the Kd is 800 µM at ELIC R91A/F116A (ITC, ELIC double mutant R91A/F116A, 4°C); 900 µM on ELIC R91A/Y258A (ITC, ELIC double mutant R91A/Y258A, 4°C); 8000 µM at ELIC WT [1] (ITC, ELIC WT in detergent (UDM), 4°C, single-site isotherm, read-out: effective dissociation constant (Keff)); 7100 µM on ELIC resting state; 1100 µM on ELIC R91A (ITC, ELIC ligand binding site mutant R91A, 4°C); 90 µM on ELIC T28D [2] (ELIC mutant T28D, agonist, read-out: Keff). For the same molecule, the EC50 in the data set on ELIC is 450 µM. The “Keff (ITC) higher than EC50 (two-electrode voltage clamp)” value at ELIC WT [1] is “about 20 fold”. The “decrease in Keff concentration compared to WT” value on ELIC T28D [2] (ELIC T28D versus WT) came out at 90 fold.

Regarding `NCCS` [cysteamine], the I/Imax mean on ELIC WT [3] (conc cys. 0.1 (mM)) is given as 0.00; at ELIC WT [3] (conc cys. 0.25 (mM)), 0.00655; at ELIC WT [3] (conc cys. 0.5 (mM)), 0.09; at ELIC WT [3] (conc cys. 0.75 (mM)), 0.32; at ELIC WT [3] (conc cys. 1 (mM)), 0.54; at ELIC WT [3] (conc cys. 5 (mM)), 1.00. Moreover, the I/Imax mean was determined as 0.13 on ELIC T28D [4] (conc cys. 0.01 (mM)); 0.63 at ELIC T28D [4] (conc cys. 0.025 (mM)); 0.96 at ELIC T28D [4] (conc cys. 0.05 (mM)); 1.00 on ELIC T28D [4] (conc cys. 0.1 (mM)); 0.16 at ELIC L29A (conc cys. 0.1 (mM)); 0.69 at ELIC L29A (conc cys. 0.25 (mM)). Also, the I/Imax mean on ELIC L29A (conc cys. 0.35 (mM)) worked out at 0.79; on ELIC L29A (conc cys. 0.5 (mM)), 0.88; at ELIC L29A (conc cys. 0.75 (mM)), 1.00; at ELIC P254A (conc cys. 0.25 (unit not given)), 0.0189; at ELIC P254A (conc cys. 0.5 (unit not given)), 0.14; on ELIC P254A (conc cys. 0.75 (unit not given)), 0.41. Also, the “I/Imax mean” value was determined as 0.51 on ELIC P254A (conc cys. 1 (unit not given)); 0.90 at ELIC P254A (conc cys. 2.5 (unit not given)); 1.00 on ELIC P254A (conc cys. 5 (unit not given)); 0.0138 at ELIC T28A (conc cys. 1.00 (mM)); 0.34 at ELIC T28A (conc cys. 2.50 (mM)); 0.56 at ELIC T28A (conc cys. 5.00 (mM)). The I/Imax mean on ELIC T28A (conc cys. 10.00 (mM)) came out at 0.83; on ELIC T28A (conc cys. 25.00 (mM)), 1.00; at ELIC ΔL29 (conc cys. 0.25 (mM)), 0.10; on ELIC ΔL29 (conc cys. 0.5 (mM)), 0.43; on ELIC ΔL29 (conc cys. 0.75 (mM)), 0.64; at ELIC ΔL29 (conc cys. 1 (mM)), 0.86. The molecule further returned an I/Imax mean at ELIC ΔL29 (conc cys. 2.5 (mM)) of 1.00. The “I/Imax, single oocyte” value is 0.13 and 0.12 and 0.19 at ELIC P254A (conc cys. 0.5 (unit not given), listed as cys.); 0.33 and 0.45 and 0.39 and 0.42 on ELIC P254A (conc cys. 0.75 (unit not given), listed as cys.); 0.42 and 0.56 and 0.47 at ELIC P254A (conc cys. 1 (unit not given), listed as cys.); 0.82 and 0.97 and 0.85 and 0.95 and 0.92 at ELIC P254A (conc cys. 2.5 (unit not given), listed as cys.); 1.00 on ELIC P254A (conc cys. 5 (unit not given)). Further, the “EC50 higher than WT” value on ELIC T28A (ELIC T28A versus WT, two-electrode voltage clamp) is 3.5 fold.

In the case of `CC(=O)OCC[N+](C)(C)C` [acetylcholine], the values for the Kd on ELIC R91A/F116A, on ELIC R91A/Y258A and at ELIC R91A were 1800 µM, 2000 µM and 1400 µM, respectively. Further, at ELIC T28D [2] (ELIC T28D versus WT), the “binding of the antagonist compared to WT” value is given as “unchanged”.

What is called stoichiometry N is a count of units in the complex or per binding partner. In data set [5], “ELIC double mutant R91A/Y258A (receptor)” registered a stoichiometry N of 5.

The molecule “ELIC ligand binding site mutant R91A (receptor)” displayed a stoichiometry N in [6] of 5.

B1: ELIC wild type (receptor)
chain: APADNAADARPVDVSVSIFINKIYGVNTLEQTYKVDGYIVAQWTGKPRKTPGDKPLIVENTQIERWINNGLWVPALEFINVVGSPDTGNKRLMLFPDGRVIYNARFLGSFSNDMDFRLFPFDRQQFVLELEPFSYNNQQLRFSDIQVYTENIDNEEIDEWWIRKASTHISDIRYDHLSSVQPNQNEFSRITVRIDAVRNPSYYLWSFILPLGLIIAASWSVFWLESFSERLQTSFTLMLTVVAYAFYTSNILPRLPYTTVIDQMIIAGYGSIFAAILLIIFAHHRQAMGVEDDLLIQRCRLAFPLGFLAIGCVLVIRGITL
notes: ELIC, prokaryotic pentameric ligand-gated ion channel; GenBank WP_013319743 printed; Homopentamer; purified for ITC with small-molecule ligands; also called ELIC WT; source: E. coli BL21-DE3, purified (extracted in UDM, Ni-NTA, HRV 3C cleavage, Superdex 200 gel filtration); not shown: His10, N-terminal, cleaved
On to B1, for which the “stoichiometry N” value in [7] was 5.

B2: ELIC double mutant R91A/F116A (receptor)
chain: APADNAADARPVDVSVSIFINKIYGVNTLEQTYKVDGYIVAQWTGKPRKTPGDKPLIVENTQIERWINNGLWVPALEFINVVGSPDTGNKALMLFPDGRVIYNARFLGSFSNDMDARLFPFDRQQFVLELEPFSYNNQQLRFSDIQVYTENIDNEEIDEWWIRKASTHISDIRYDHLSSVQPNQNEFSRITVRIDAVRNPSYYLWSFILPLGLIIAASWSVFWLESFSERLQTSFTLMLTVVAYAFYTSNILPRLPYTTVIDQMIIAGYGSIFAAILLIIFAHHRQAMGVEDDLLIQRCRLAFPLGFLAIGCVLVIRGITL
notes: source: E. coli BL21-DE3, purified (extracted in UDM, Ni-NTA, HRV 3C cleavage, Superdex 200 gel filtration)
As for B2, the “stoichiometry N” value in “SEC” was determined as 5.
